Test results as given in patent US8236509B2, “Method for preparing antibody monolayers which have controlled orientation using peptide hybrid” (Korea Research Institute of Bioscience and Biotechnology, priority 2007, dated 2012).
Entries after “also recorded” stand apart in the source; their conditions may differ.

What was measured:
[1] = tested on: MIgG2; experiment: SPR binding capacity, antibody isotypes; set-up: species or system mouse; settings: CM-5 Au sensor chip
Procedure: (§1) Then, PBS containing 100 μM of the peptide hybrid was spilled thereon at the same speed for 30 minutes. […] The surface area remaining non-reacted with the peptide hybrid was inactivated by using 1 M of ethanolamine solution (pH 8.5).

[2] = tested on: MIgGA; experiment: SPR binding capacity, antibody isotypes; set-up: species or system mouse; settings: CM-5 Au sensor chip
Procedure: as §1

[3] = tested on: MIgG3; experiment: SPR binding capacity, antibody isotypes; set-up: species or system mouse; settings: CM-5 Au sensor chip
Procedure: as §1

[4] = target: T1, MIgG1 (Mus musculus, UniProt P01868); experiment: SPR binding capacity, antibody isotypes; settings: CM-5 Au sensor chip
T1 construct: purchased Sigma-Aldrich (USA)
Procedure: as §1

[5] = tested on: HIgG (mixture of HIgG 1-HIgG 3); experiment: Cy3-labeled antibody binding to glass plate surface-treated with peptide hybrid (fluorescence); set-up: species or system human; settings: fluorescence image
Procedure: (§2) The glass plate was treated with a mixed solution of 95% sulfuric acid and 5% hydrogen peroxide (V/V 3:1) at 60° C. for 30 minutes, followed by washing with distilled water and ethanol. The washed glass plate was soaked in 1% APTS, followed by reaction for 4 hours at room temperature to introduce amine group. The amine group introduced glass plate was reacted in 1 M succinic anhydride-DMF solution at 37° C. for 4 hours to generate carboxyl group on the glass plate. The glass plate was washed with distilled water and ethanol and dried using nitrogen gas and then stored in a vacuum drier. The carboxyl group introduced glass plate was treated with a mixed solution of 0.1 M EDC and 0.025 M NHS for 15 minutes to activate its surface. The activated glass plate was washed with distilled water and dried using nitrogen gas. The peptide hybrid for protein immobilization of 1a was dissolved in PBS containing 40% glycerol at the final concentration of 0.5 mg/ml, which was dropped on the glass plate by 1 μl per each drop, followed by reaction for 2 hours. The non-reacted active ester remaining on the glass plate was inactivated by using 1 M of ethanolamine (pH 8.5) and washed with PBS. […]

[6] = target: T2, rabbit IgG (Oryctolagus cuniculus, UniProt P01870); experiment: biochemical
[7] = tested on: mouse originated IgG; experiment: Antibody binding to magnetic micro beads surface-treated with peptide hybrid (PAGE); settings: antibody 0.1 mg/ml, bead 2 mg/ml
Procedure: (§3) The surface of the magnetic micro bead containing a carboxyl group was activated by loading 25 mM of MES (pH 6) containing NHS (0.4 M) and EDC (0.2 M). Only magnetic micro bead was recovered by using a magnet and the activated magnetic micro bead was reacted with 0.2 mg/ml of the peptide hybrid of 1a at room temperature for one hour. The activated magnetic micro bead was reacted with PBS alone for the control group. Non-reacted active ester group was inactivated by using 1 M of ethanolamine (pH 8.5). Both the magnetic micro bead with the peptide hybrid of 1a attached and the magnetic micro bead without the peptide hybrid of 1a were repeatedly washed by PBS and diluted in PBS (final concentration: 5 mg/ml).
(§4) To confirm the binding of the magnetic micro bead adhered with the peptide hybrid of 1a to the antibody, 2 mg/ml (final concentration) of the magnetic micro bead and 0.1 mg/ml of the antibody used in Example <3-2> were mixed to induce binding reaction. After inducing reaction for one hour at room temperature, the magnetic micro bead was dragged down to the bottom of the vessel by using a magnet and the supernatant was eliminated. This process was repeated five times to remove the non-reacted antibodies. The magnetic micro bead reacted with the antibody was added in PAGE loading buffer containing a reducing agent (2-mercaptoethanol), which was heated to separate the antibody chain from the magnetic micro bead, followed by PAGE.
(§5) The antibody bound to the magnetic micro bead was quantified by using 12% polyacrylamide gel containing 10% SDS. Particularly, 20 μl of PBS containing 2% micro bead was mixed with 5 μl of sample buffer (pH 6.8; 60 mM Tris-HCl, 25% glycerol, 2% SDS, 14.4 mM 2-mercaptoethanol, 0.1% bromophenol blue, H2O), followed by heating at 90° C. for 10 minutes. 15 μl of the sample was placed on each well of polyacrylamide gel. 200 V of voltage was applied thereto at room temperature for one hour to migrate sample, followed by dipping the gel in the staining solution (0.5% coomassie blue, 45% methanol, 10% acetic acid solution) at room temperature for 30 minutes. Upon completion of staining, the gel was transferred into the destaining solution (10% methanol, 10% acetic acid solution), followed by stirring at room temperature for 3 hours. The excessive staining reagent was eliminated by washing.

[8] = target: T3, rabbit originated IgG (Oryctolagus cuniculus, UniProt P01870); experiment: as above; settings: antibody 0.1 mg/ml, bead 2 mg/ml
T3 construct: purchased Sigma-Aldrich (USA)
Procedure: as §3, §4, §5

[9] = tested on: goat originated IgG; experiment: as above; settings: antibody 0.1 mg/ml, bead 2 mg/ml
Procedure: as §3, §4, §5

[10] = tested on: human originated HIgG; experiment: as above; settings: antibody 0.1 mg/ml, bead 2 mg/ml
Procedure: as §3, §4, §5

[11] = tested on: MIgG (mixture of MIgG 1-MIgG 3); experiment: Cy3-labeled antibody binding to glass plate surface-treated with peptide hybrid (fluorescence); set-up: species or system mouse; settings: fluorescence image
Procedure: as §2

[12] = target: T3, rabbit originated IgG; experiment: SPR binding capacity on peptide-hybrid-treated CM-5 Au sensor chip
Procedure: as §1

[13] = tested on: mouse originated antibodies (mixed composition of MIgGs 1-3); experiment: as above
Procedure: as §1

[14] = tested on: goat originated antibody; experiment: as above
Procedure: as §1

[15] = tested on: human originated IgG (HIgGs 1-3); experiment: as above
Procedure: as §1

[16] = target: T2, rabbit IgG; experiment: Cy3-labeled antibody binding to glass plate surface-treated with peptide hybrid (fluorescence); set-up: purchased Sigma-Aldrich (USA); settings: fluorescence image
Procedure: as §2

[17] = Storage stability of glass plate surface-treated with peptide hybrid; assay type: physicochemical; settings: several months storage at room temperature
Procedure: The glass plate was treated with a mixed solution of 95% sulfuric acid and 5% hydrogen peroxide (V/V 3:1) at 60° C. for 30 minutes, followed by washing with distilled water and ethanol. The washed glass plate was soaked in 1% APTS, followed by reaction for 4 hours at room temperature to introduce amine group. The amine group introduced glass plate was reacted in 1 M succinic anhydride-DMF solution at 37° C. for 4 hours to generate carboxyl group on the glass plate. The glass plate was washed with distilled water and ethanol and dried using nitrogen gas and then stored in a vacuum drier. The carboxyl group introduced glass plate was treated with a mixed solution of 0.1 M EDC and 0.025 M NHS for 15 minutes to activate its surface. The activated glass plate was washed with distilled water and dried using nitrogen gas. The peptide hybrid for protein immobilization of 1a was dissolved in PBS containing 40% glycerol at the final concentration of 0.5 mg/ml, which was dropped on the glass plate by 1 μl per each drop, followed by reaction for 2 hours. The non-reacted active ester remaining on the glass plate was inactivated by using 1 M of ethanolamine (pH 8.5) and washed with PBS.
The Cy3 labeled antibody solution was dropped on the glass plate surface-treated with the hybrid of 1a by 50 μl per each drop, followed by reaction for one hour at room temperature. […]

[18] = tested on: goat IgG; experiment: Cy3-labeled antibody binding to glass plate surface-treated with peptide hybrid (fluorescence); settings: fluorescence image
Procedure: as §2

[19] = Stability of peptide-treated chip surface to washing with 20 mM NaOH and reuse; assay type: physicochemical; settings: CM-5 chip, reused for antigen-antibody binding
[20] = tested on: HIgG3; experiment: SPR binding capacity, antibody isotypes; set-up: species or system human; settings: CM-5 Au sensor chip
Procedure: as §1

[21] = tested on: HIgG1; experiment: SPR binding capacity, antibody isotypes; set-up: species or system human; settings: CM-5 Au sensor chip
Procedure: as §1

[22] = tested on: HIgG2; experiment: SPR binding capacity, antibody isotypes; set-up: species or system human; settings: CM-5 Au sensor chip
Procedure: as §1

[23] = target: BSA (Bos taurus, UniProt P02769); experiment: SPR binding capacity on peptide-hybrid-treated CM-5 Au sensor chip (control protein)
Procedure: as §1

[24] = tested on: CRP; settings: SPR, CRP 5 μg/ml, anti-CRP antibody immobilized via the hybrid
Procedure: Then, PBS containing CRP at the same concentration as the above was spilled thereon, followed by measuring the antigen-antibody binding by surface plasmon resonance (SPR) using Biacore 3000. The surface of the chip was recovered by 20 mM NaOH solution for the repeat of the experiment to measure the antigen-antibody binding.
A buffer containing 0.2 M EDC and 0.05 M NHS was spilled on the dextran CM-5 Au sensor chip (BIacore AB, Sweden) at the speed of 7 μl/minute to activate carboxyl group on the surface of the sensor chip. Then, PBS containing 5 μg/ml of anti-CRP antibody was spilled thereon for 30 minutes at the same speed. The antibody was bound via the reaction of the terminal amine group with the carboxyl group on the sensor chip activated as NHS ester form. The surface not reacted with the antibody was inactivated by using 1 M ethanolamine solution (pH 8.5).
PBS containing 5 μg/ml of CRP was spilled on the anti-CRP antibody chip with the chemical immobilization and the anti-CRP antibody chip with the immobilization by the peptide hybrid of 1a respectively at the speed of 10 μl/minute, followed by measuring the degree of antigen-antibody binding by surface plasmon resonance using Biacore 3000.

[25] = target: HIgG1; experiment: SPR binding affinity (Biacore 3000, nonlinear regression); set-up: species or system human; settings: antibody 100-1,000 nM, CM-5 chip
Procedure: The values were analyzed by nonlinear regression using BIAevaluation software equipped in Biacore 3000 to draw a theoretical line graph (FIG. 4a).

[26] = tested on: human, rabbit, mouse and goat antibodies; experiment: SPR binding capacity on peptide-hybrid-treated CM-5 Au sensor chip, different antibodies; settings: antibody 5 μg/ml in PBS
Procedure: as §1

T3 sequence (P01870 whole entry): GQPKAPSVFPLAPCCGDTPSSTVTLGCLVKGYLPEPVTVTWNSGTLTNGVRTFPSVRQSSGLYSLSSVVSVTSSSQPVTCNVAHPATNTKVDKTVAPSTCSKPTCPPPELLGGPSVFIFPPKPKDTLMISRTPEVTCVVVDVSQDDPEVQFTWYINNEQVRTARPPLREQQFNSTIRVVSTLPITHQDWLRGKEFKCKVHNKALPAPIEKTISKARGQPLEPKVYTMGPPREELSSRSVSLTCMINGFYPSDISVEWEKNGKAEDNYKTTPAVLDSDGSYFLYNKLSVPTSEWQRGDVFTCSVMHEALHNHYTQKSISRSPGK
T2 sequence (P01870 whole entry): as above

CC(C)C[C@@H]1NC(=O)[C@H](Cc2c[nH]cn2)NC(=O)[C@H](Cc2c[nH]c3ccccc23)NC(=O)[C@H](C)NC(=O)[C@@H](NC(=O)[C@H](CC(=O)O)NC(=O)[C@H](CC(=O)O)NC(=O)[C@H](CCC(=O)O)NC(=O)CCOCCOCCN)CSSC[C@@H](C(=O)N[C@H](C(N)=O)[C@@H](C)O)NC(=O)[C@H](Cc2c[nH]c3ccccc23)NC(=O)[C@H](C(C)C)NC(=O)[C@H](CC(C)C)NC(=O)[C@H](CCC(=O)O)NC(=O)CNC1=O [formula 1a, H2N(CH2CH2O)2CH2CH2COEDDC*AWHLGELVWC*T-CONH2]
binding to MIgG2 (SPR), in words [1]: hardly bound
binding to MIgGA (SPR), in words [2]: hardly bound
binding to MIgG3 (SPR), in words [3]: to some degree
binding to MIgG1 (SPR), in words [4]: hardly bound
binding of human originated antibodies to glass plate [5]: bound very well
Kd [6]: 305 nM
binding to mouse originated IgG, magnetic micro bead [7]: not
binding to rabbit originated IgG, magnetic micro bead [8]: effectively bound
binding to goat originated IgG, magnetic micro bead [9]: not
binding to human originated HIgG, magnetic micro bead [10]: effectively bound
binding of mouse originated antibodies to glass plate [11]: not bound well
binding to rabbit originated antibodies (SPR), in words [12]: immobilized effectively
SPR binding level, rabbit originated IgG ([12]; saturated level): 12000 RU
binding to mouse originated antibodies (SPR), in words [13]: not successfully immobilized; also recorded: only at minimum level
binding to goat originated antibody (SPR), in words [14]: not successfully immobilized; also recorded: only at minimum level
binding to human originated antibodies (SPR), in words [15]: immobilized effectively
SPR binding level, human originated IgG ([15]; saturated level): 12000 RU
binding of rabbit originated antibodies to glass plate [16]: bound very well
antibody binding capacity of surface-treated glass plate after storage [17]: maintain its antibody binding capacity
binding of goat originated antibodies to glass plate [18]: not bound well
antibody binding capacity of the peptide-treated surface after washing with 20 mM NaOH [19]: without reducing the antibody binding capacity; also recorded: antibody binding capacity was not reduced
binding to HIgG3 (SPR), in words [20]: barely bound
binding to HIgG1 (SPR), in words [21]: particularly strongly bound; also recorded: effectively bound
binding to HIgG2 (SPR), in words [22]: particularly strongly bound; also recorded: effectively bound
binding to BSA (SPR), in words [23]: not bound
antigen-antibody binding capacity relative to chip with chemically immobilized anti-CRP antibody [24]: approximately 1.6 fold
Kd [25]: 85 nM

H2N(CH2CH2O)nCH2CH2COXDC*AWHLGELVWC*T-CONH2 [formula 1]
binding to rabbit originated antibodies (SPR), in words [12]: strongly bound
binding to human originated antibodies (SPR), in words [15]: strongly bound
binding to the different types of antibodies (SPR) [26]: strongly attached
